The source of these data is ChEMBL document CHEMBL3727359, “Methods and compositions for treating or preventing pruritis” (2012).

A word on the IC50: it is the point on the concentration scale where inhibition reaches its midpoint.

Each structure is given as a SMILES string.

Assay [1] deals with T1, Mas-related G-protein coupled receptor member X1 (Homo sapiens, UniProt Q96LB2). The experiment in a line: Antagonist activity at MrgX1 in mouse or rat DRG neurons assessed as intracellular Ca2+ level by FLIPR assay. It is filed as functional, cell-based.
In assay [2] the target is T1, Mas-related G-protein coupled receptor member X1. In words: Antagonist activity at MrgX1 in mouse or rat DRG neurons assessed as action potential by whole-cell patch clamp method. It is filed as functional. (In patch-clamp work, channel activity is measured electrically.)

T1 sequence (Q96LB2 whole entry, looked up): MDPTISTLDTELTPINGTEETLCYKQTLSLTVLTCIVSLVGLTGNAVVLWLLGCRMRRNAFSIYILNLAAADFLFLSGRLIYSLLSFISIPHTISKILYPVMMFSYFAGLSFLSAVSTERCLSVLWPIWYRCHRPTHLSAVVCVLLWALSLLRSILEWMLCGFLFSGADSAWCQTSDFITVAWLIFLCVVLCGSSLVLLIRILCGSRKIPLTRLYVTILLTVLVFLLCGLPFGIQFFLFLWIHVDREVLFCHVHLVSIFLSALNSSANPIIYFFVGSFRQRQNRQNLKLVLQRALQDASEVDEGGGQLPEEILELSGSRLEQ

`N#Cc1ccc(COC2C3CCN(CC3)C2C(c2ccccc2)c2ccccc2)cc1` (configuration not stated): the results for the concentration for half-maximal inhibition (IC50) in assay [1] and in assay [2] were 0.632 µM and 5.6 µM, respectively.
